Assay results reported in a melting point compilation (Tetko et al.; mined from patent text by program, amines drawn as free bases though some values may be those of a salt).

Row | SMILES | melting point [°C]
1 | O=C(O)c1cn([C@@H]2C[C@@H]2F)c2cc(N3C[C@@H]4NCCO[C@H]4C3)c(F)cc2c1=O | > 250
2 | COCOC1=C(C(N)=O)CC(C#N)(c2cccc(OCC3CC3)c2)CC1 (stereo not drawn) | 120 to 122
3 | CC1CCCC(C)N1Cc1ccc(NC(=O)C#Cc2ccc(-c3ccc(Cl)cc3)cc2)cc1 (stereo not drawn) | 158 to 163
4 | Cc1cc(NC(=O)C(C)(O)COc2ccccc2F)ccc1[N+](=O)[O-] (stereo not drawn) | 94 to 96
5 | Oc1ccc(O)c(-c2noc3cc(O)ccc23)c1 | 215 to 217
6 | CCNCC1CN(c2c(F)cc3c(=O)c(C(=O)O)cn(C4CC4)c3c2Cl)CC1C (stereo not drawn) | 254 to 257
7 | CCCCCCCCCCc1csc2c1sc1c2sc2c3scc(CCCCCCCCCC)c3sc21 | 108
8 | CC(=O)c1c(CN2CCOCC2)[nH]c2ccc(Cl)cc12 | 120 to 121
9 | CC(=O)Nc1cc2c(cc1[N+](=O)[O-])[C@@H](O)[C@H](Br)C(C)(C)O2 (relative stereo) | 205 to 206
10 | CC(=O)OC1OC(C)C(OCc2ccccc2)C(OCc2ccccc2)C1OCc1ccccc1 (stereo not drawn) | 86 to 87.5
11 | OCc1cn(C(c2ccccc2)(c2ccccc2)c2ccccc2)nn1 | 200 to 201
12 | Cc1ccc(C(=O)N2CCc3nnc(NN=C4CCCCC4)cc3C2)cc1 | 208 to 210
13 | O=CC(O)C(O)C(CO)OC1OC(CO)C(O)C(O)C1O (stereo not drawn) | 171 to 176
14 | c1ccc(CCCC2CCN(Cc3nc4ccccc4[nH]3)CC2)cc1 | 140 to 141
15 | NS(=O)(=O)c1ccc(S(=O)(=O)c2ccc(OC(=O)c3cccnc3)cc2)s1 | 200 to 201
16 | c1ccc2nc(CSc3nc4cccc5c4n3CCC5)ccc2c1 | 125 to 126
17 | O=C(O)c1c(F)c(OC(F)F)c(F)c(F)c1[N+](=O)[O-] | 77 to 80
18 | Cc1[nH]c(=O)n(C(C)C)c1-c1ccc(C2CCCCC2)cc1 | 274
19 | CCc1ccc(C#Cc2ccc(Br)cc2)cc1 | 117

Continued, values first:

Row | melting point [°C] | SMILES
20 | 53 | CN(C)Cc1ccc(CNC(=O)C2Cc3ccccc3N2S(=O)(=O)c2ccc(-c3ccccc3C(F)(F)F)cc2)cc1 (stereo not drawn)
21 | 115 | O=Cc1ccnc2ccc(-c3ccccc3)cc12
22 | 196 to 198 | O=C(NC(=O)c1cccnc1)NC1CCN(Cc2ccc3ncccc3c2)CC1
23 | 155 to 160 | Cn1cc(-c2cccc(S(=O)(=O)n3ccc(/C=C/C(=O)NO)c3)c2)cn1
24 | 222 to 224 | Cc1ccc(NC(=O)NCc2cccc3c2C(=O)N(C2CCC(=O)NC2=O)C3=O)cc1C (stereo not drawn)
25 | 122 to 125 | O=S(=O)(c1c(-c2ccc(Cl)cc2)[nH]c(SC(F)(F)F)c1Br)C(F)(F)F
26 | 145 to 146 | COC(=O)c1cccc(OS(N)(=O)=O)c1
27 | 188 to 192 | O=C(Cn1nc2ccccc2n1)Nc1ccc(-n2nc(C(F)(F)F)cc2C2CC2)cc1
28 | 160 to 162 | COC(=O)Nc1ccccc1CS(=O)c1ncc(C(F)(F)F)cc1Cl (stereo not drawn)
29 | 243 to 245 | COCCOc1ccc(/C=C/C(=O)O)c(NC(=O)c2ccc(Cl)cc2Cl)c1
30 | 104 to 107 | Cc1ccc(N)c2nccc(Cl)c12
31 | 165 to 167 | CCOc1ccccc1C1OC(=O)NC1=O (stereo not drawn)
32 | 211 to 215 | NS(=O)(=O)c1ccc(NN=C2C(=O)Nc3ccc(C(=O)NCc4cccnc4)cc32)cc1
33 | 80 to 83 | O=C(O)Cc1cc(F)ccc1Sc1ccccc1
34 | 99 | COc1cc(Cc2cnc(N)nc2N)cc(-c2ccc(C=O)cc2)c1OC
35 | 233 to 234 | CS(=O)(=O)N1CCC(NC(=O)Nc2ccc(OC(F)(F)F)cc2)CC1
36 | 227 to 229 | O=C(Nc1cc(F)ccc1O)c1cc(Cl)c(O)c(Cl)c1
37 | 76 to 77.5 | COc1ccc(/C=C/c2ccccn2)cc1OC1CCCC1
38 | 95 to 97 | CCCc1cn2ccccc2c1C(=O)c1ccc(OS(=O)(=O)c2ccc(C)cc2)cc1
